In patent publication US20070259927A1, “Remedy for Diabetes” (Takeda Pharmaceutical Company Limited, priority 2004, published 2007):

How the values were obtained:
Format in all cases: in vivo
db/db mouse [1] = assay: Experimental Example 1: db/db mouse, powder diet for 3 weeks, pioglitazone and compound A alone or combined; conditions: db/db mice, in powder diet 3 weeks, mean (n=8)±standard deviation; for plasma insulin level / plasma glucose level / plasma insulin/plasma glucose value: day 21; for plasma insulin level / pancreatic insulin content: pioglitazone 0.01(w/w)%, compound A 0.03(w/w)% (½ fumarate); for plasma glucose level: pioglitazone hydrochloride 0.01(w/w)% as pioglitazone, ½ fumarate of compound A 0.03(w/w)% as compound A; for plasma insulin/plasma glucose value: plasma insulin level divided by plasma glucose level; for pancreatic insulin content: pancreas removed day 23
Source text: First of all, db/db mice (32 mice) were divided into 4 groups of A to D (8 mice in each group), and a powder diet (trade name: CE-2, Clea Japan, Inc., hereinafter the same) was given to group A (control group), a powder diet containing pioglitazone hydrochloride (0.01(w/w) % as pioglitazone) was given to group B, a powder diet containing ½ fumarate of compound A (0.03(w/w) % as compound A) was given to group C, and a powder diet containing pioglitazone hydrochloride (0.01(w/w) % as pioglitazone) and ½ fumarate of compound A (0.03(w/w) % as compound A) was given to group D, for 3 consecutive weeks.
In addition, a powder diet was given to db/+m mice for 3 consecutive weeks, and the mice were used as group E (normal group).
(§1) In the above-mentioned groups A to E, blood samples were collected from mice on day 21 from the start of the powder diet administration, and plasma glucose level and plasma insulin level were measured. On day 23 from the start of the powder diet administration, the pancreas was removed from the mice, and the pancreatic insulin content was measured.
The plasma glucose level was measured by an enzyme method using L type Wako Glu2 (trade name, Wako Pure Chemical Industries, Ltd.).
In addition, the plasma insulin level was measured by a radioimmunoassay (trade name, ShionoRIA insulin), and the plasma insulin level was divided by the plasma glucose level to determine the plasma insulin/plasma glucose value.
The pancreatic insulin content was measured as follows.
First, the mouse pancreas was disrupted in its 10 times weight of 75% ethanol (containing 0.15 M hydrochloric acid). The obtained disrupted solution was left standing overnight under the shading conditions at 4·^□C, and centrifuged at 15000 rpm for 5 min. The obtained supernatant was appropriately diluted with PBS(−) (phosphate-buffered saline) containing 0.1% BSA (bovine serum albumin). The insulin content of the diluted solution was measured in the same manner as in the above-mentioned plasma insulin level, and the insulin content per pancreatic tissue weight was calculated.
The results are shown in [Table 1] to [Table 4]. The values in the tables show mean (n=8)±standard deviation.

db/db mouse [2] = assay: Experimental Example 2: db/db mouse, powder diet for 5 weeks, pioglitazone and vildagliptin alone or combined; conditions: db/db mice, in powder diet 5 weeks, mean (n=8)±standard deviation; for pancreatic insulin content: pancreas removed day 37
Source text: First of all, db/db mice (32 mice) were divided into 4 groups of F to I (8 mice in each group), and
a powder diet (trade name: CE-2, Clea Japan, Inc., hereinafter the same) was given to group F (control group), a powder diet containing pioglitazone hydrochloride (0.01 (w/w) % as pioglitazone) was given to group G,
a powder diet containing pioglitazone hydrochloride
In addition, a powder diet was given to db/+m mice for 5 consecutive weeks, and the mice were used as group J (normal group).
as §1, with “F” for “A”, “I,” for “E,”, “35” for “21”, “37” for “23”
The plasma glucose level, plasma insulin level, plasma insulin/plasma glucose value, and the pancreatic insulin content were measured in the same manner as in Experimental Example 1.
The results are shown in [Table 5] to [Table 8]. The values in the tables show mean (n=8)±standard deviation.

db/db mouse [3] = assay: Experimental Example 3: db/db mouse, powder diet for 4 weeks, pioglitazone and sitagliptin alone or combined; conditions: db/db mice, in powder diet 4 weeks, mean (n=8)±standard deviation; for plasma insulin level / plasma glucose level / plasma insulin/plasma glucose value: day 28; for plasma insulin level / pancreatic insulin content: pioglitazone 0.01(w/w)%, sitagliptin 0.03(w/w)%; for plasma glucose level: pioglitazone hydrochloride 0.01(w/w)% as pioglitazone, sitagliptin hydrochloride 0.03(w/w)% as sitagliptin; for plasma insulin/plasma glucose value: plasma insulin level divided by plasma glucose level; for pancreatic insulin content: pancreas removed day 29
Source text: First of all, db/db mice (32 mice) were divided into 4 groups of […] mice in each group), and a powder diet (trade name: CE-2, Clea Japan, Inc., hereinafter the same) was given to group K (control group), a powder diet containing pioglitazone hydrochloride (0.01(w/w) % as pioglitazone) was given to group L, a powder diet containing sitagliptin hydrochloride (0.03(w/w) % as sitagliptin) was given to group M, and a powder diet containing pioglitazone hydrochloride (0.01(w/w) % as pioglitazone) and sitagliptin hydrochloride (0.03(w/w) % as sitagliptin) was given to group N, for 4 consecutive weeks. In addition, a powder diet was given to db/+m mice for 4 consecutive weeks, and the mice were used as group 0 (normal group). In the above-mentioned groups K to N, blood samples were collected from mice on day 28 from the start of the powder diet administration, and plasma glucose level and plasma insulin level were measured. […] The results are shown in [Table 9] to [Table 12]. The values in the tables show mean (n=8)±standard deviation.

[4] = pioglitazone 0.01(w/w)%, vildagliptin 0.03(w/w)%

| Compound | plasma insulin level (db/db mouse [1]) | plasma glucose level (db/db mouse [1]) | plasma insulin/plasma glucose value (db/db mouse [1]) | pancreatic insulin content (db/db mouse [1]) | plasma insulin level (db/db mouse [2]; day 35, pioglitazone 0.01(w/w)%, vildagliptin 0.03(w/w)%) | plasma glucose level (db/db mouse [2]; day 35, pioglitazone hydrochloride 0.01(w/w)% as pioglitazone, vildagliptin 0.03(w/w)%) | plasma insulin/plasma glucose value (db/db mouse [2]; day 35, plasma insulin level divided by plasma glucose level) | pancreatic insulin content (db/db mouse [2]; [4]) | plasma insulin level (db/db mouse [3]) | plasma glucose level (db/db mouse [3]) | plasma insulin/plasma glucose value (db/db mouse [3]) | pancreatic insulin content (db/db mouse [3]) |
| --- | --- | --- | --- | --- | --- | --- | --- | --- | --- | --- | --- | --- |
| Cc1ccc(-c2c(CN)c(CC(C)C)nc(C)c2C(=O)O)cc1 [compound A, 5-(aminomethyl)-6-isobutyl-2-methyl-4-(4-methylphenyl)nicotinic acid] | 135.5 ± 115.4 μU/mL | 502.0 ± 54.3 mg/dL | 29.0 ± 28.4 μU/mg | 918.4 ± 328.6 μU/mg tissue |  |  |  |  |  |  |  |  |
| CCc1ccc(CCOc2ccc(CC3SC(=O)NC3=O)cc2)nc1 (stereo not drawn) [pioglitazone] | 289.2 ± 261.8 μU/mL | 411.0 ± 54.4 mg/dL | 72.9 ± 64.5 μU/mg | 2314.2 ± 1285.4 μU/mg tissue | 200.2 ± 78.0 μU/mL | 348.5 ± 97.4 mg/dL | 63.9 ± 35.9 μU/mg | 834.7 ± 275.3 μU/mg tissue | 739.5 ± 472.8 μU/mL | 341.0 ± 100.6 mg/dL | 261.7 ± 217.9 μU/mg | 1117.2 ± 479.7 μU/mg tissue |
| N[C@@H](CC(=O)N1CCn2c(nnc2C(F)(F)F)C1)Cc1cc(F)c(F)cc1F [sitagliptin] |  |  |  |  |  |  |  |  | 103.1 ± 47.2 μU/mL | 492.3 ± 38.3 mg/dL | 21.6 ± 11.3 μU/mg | 331.1 ± 79.6 μU/mg tissue |
| N#C[C@@H]1CCCN1C(=O)CNC12CC3CC(CC(O)(C3)C1)C2 [vildagliptin, (2S)-1-{[(3-hydroxy-1-adamantyl)amino]acetyl}-2-cyano-pyrrolidine] |  |  |  |  |  |  |  | 559.2 ± 169.2 μU/mg tissue |  |  |  |  |
